Laboratory results published in patent US11192877B2, “3-(5-hydroxy-1-oxoisoindolin-2-yl)piperidine-2,6-dione derivatives and uses thereof” (Novartis AG, priority 2018, dated 2021).
Read-outs that look alike come from different tables or passages of the source.

Biological target: IKZF2 (Helios) (Homo sapiens, UniProt Q96SW2+Q9UKS7)
Assay: Prolabel quantification of IKZF2 protein levels in 293GT cells
Type: cell-based
Conditions: 24 h, read-out: IKZF2 % protein reduction at 10 μM, 24 h
[1] = Pro-label assay, 293GT cells, 10 μM

IKZF2 (Helios), sequence (Q9UKS7 whole entry): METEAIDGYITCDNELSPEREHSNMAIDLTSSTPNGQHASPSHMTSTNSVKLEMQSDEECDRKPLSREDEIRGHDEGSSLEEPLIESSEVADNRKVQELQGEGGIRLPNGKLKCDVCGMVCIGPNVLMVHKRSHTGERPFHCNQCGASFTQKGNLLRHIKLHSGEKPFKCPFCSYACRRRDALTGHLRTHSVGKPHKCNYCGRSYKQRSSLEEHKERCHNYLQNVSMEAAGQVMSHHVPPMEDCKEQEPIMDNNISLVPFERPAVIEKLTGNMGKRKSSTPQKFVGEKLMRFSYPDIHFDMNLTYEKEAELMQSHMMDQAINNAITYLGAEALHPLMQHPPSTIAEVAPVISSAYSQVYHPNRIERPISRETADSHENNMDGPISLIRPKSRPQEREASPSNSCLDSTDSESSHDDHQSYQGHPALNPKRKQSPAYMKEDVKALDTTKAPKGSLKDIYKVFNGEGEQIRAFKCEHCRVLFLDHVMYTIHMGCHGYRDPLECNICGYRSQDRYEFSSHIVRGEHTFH
IKZF2 (Helios), sequence (Q96SW2 whole entry): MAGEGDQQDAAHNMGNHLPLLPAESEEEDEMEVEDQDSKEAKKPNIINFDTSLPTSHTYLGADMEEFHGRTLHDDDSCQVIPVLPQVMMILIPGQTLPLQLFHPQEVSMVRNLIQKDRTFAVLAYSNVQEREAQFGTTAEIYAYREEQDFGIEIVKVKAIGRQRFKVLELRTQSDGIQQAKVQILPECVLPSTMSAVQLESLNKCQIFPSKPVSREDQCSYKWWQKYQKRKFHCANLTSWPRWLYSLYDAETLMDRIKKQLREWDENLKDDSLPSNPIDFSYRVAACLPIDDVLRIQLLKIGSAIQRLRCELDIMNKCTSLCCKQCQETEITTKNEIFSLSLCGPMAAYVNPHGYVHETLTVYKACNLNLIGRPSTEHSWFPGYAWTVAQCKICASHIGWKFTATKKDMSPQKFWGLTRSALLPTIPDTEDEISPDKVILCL
IKZF2 (Helios), sequence (Q16531 whole entry partner): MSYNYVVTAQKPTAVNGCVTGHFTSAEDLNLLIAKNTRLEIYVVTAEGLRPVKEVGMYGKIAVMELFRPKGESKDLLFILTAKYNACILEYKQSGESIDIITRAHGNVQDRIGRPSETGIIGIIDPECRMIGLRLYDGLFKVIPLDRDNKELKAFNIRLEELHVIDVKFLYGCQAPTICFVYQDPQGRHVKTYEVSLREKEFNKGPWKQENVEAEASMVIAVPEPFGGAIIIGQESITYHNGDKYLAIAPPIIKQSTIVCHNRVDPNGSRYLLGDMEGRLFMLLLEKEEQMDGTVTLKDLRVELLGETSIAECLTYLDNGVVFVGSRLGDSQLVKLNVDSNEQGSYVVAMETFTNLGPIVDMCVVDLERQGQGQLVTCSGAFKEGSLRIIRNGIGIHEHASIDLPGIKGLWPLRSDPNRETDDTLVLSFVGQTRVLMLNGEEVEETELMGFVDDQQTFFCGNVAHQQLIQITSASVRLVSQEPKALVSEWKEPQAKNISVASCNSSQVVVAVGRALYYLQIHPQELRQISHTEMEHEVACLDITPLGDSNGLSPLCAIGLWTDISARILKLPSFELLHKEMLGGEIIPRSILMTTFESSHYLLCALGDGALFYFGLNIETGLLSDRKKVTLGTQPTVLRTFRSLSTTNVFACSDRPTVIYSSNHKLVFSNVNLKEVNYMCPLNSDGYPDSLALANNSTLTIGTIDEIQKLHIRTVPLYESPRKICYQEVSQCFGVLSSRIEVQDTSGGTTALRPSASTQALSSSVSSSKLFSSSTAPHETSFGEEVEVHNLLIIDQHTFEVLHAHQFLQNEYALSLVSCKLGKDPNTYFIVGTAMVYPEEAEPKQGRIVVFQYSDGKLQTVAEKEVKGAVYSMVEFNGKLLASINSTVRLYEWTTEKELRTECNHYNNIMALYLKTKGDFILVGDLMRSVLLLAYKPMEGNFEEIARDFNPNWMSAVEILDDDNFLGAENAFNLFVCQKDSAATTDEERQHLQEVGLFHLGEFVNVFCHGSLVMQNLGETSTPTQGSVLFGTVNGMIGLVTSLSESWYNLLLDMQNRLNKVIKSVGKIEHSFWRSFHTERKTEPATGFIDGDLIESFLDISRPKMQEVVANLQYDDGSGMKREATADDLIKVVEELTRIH

Row | IKZF2 % protein reduction at 10 µM [1] | SMILES | IKZF2 % protein reduction at 10 µM
1 | 91% | CC(C)N[C@H]1CCCC[C@@H]1Oc1ccc2c(c1)CN(C1CCC(=O)NC1=O)C2=O (stereo partly drawn) [I-131, 3-(5-(((1S,2S)-2-(isopropylamino)cyclohexyl)oxy)-1-oxoisoindolin-2-yl)piperidine-2,6-dione] | –
2 | 80% | N#Cc1cccc(CN[C@H]2CCCC[C@@H]2Oc2ccc3c(c2)CN(C2CCC(=O)NC2=O)C3=O)c1 (stereo partly drawn) [I-132, 3-((((1S,2S)-2-((2-(2,6-dioxopiperidin-3-yl)-1-oxoisoindolin-5-yl)oxy)cyclohexyl)amino)methyl)benzonitrile] | –
3 | 81% | O=C1CCC(N2Cc3cc(O[C@H]4CCCC[C@@H]4NCC45CC(F)(C4)C5)ccc3C2=O)C(=O)N1 (stereo partly drawn) [I-133, 3-(5-(((1S,2S)-2-(((3-fluorobicyclo[1.1.1]pentan-1-yl)methyl)amino)cyclohexyl)oxy)-1-oxoisoindolin-2-yl)piperidine-2,6-dione] | –
4 | 92% | O=C1CCC(N2Cc3cc(O[C@H]4CCCC[C@@H]4N4CC(Oc5cccnc5)C4)ccc3C2=O)C(=O)N1 (stereo partly drawn) [I-135, 3-(1-oxo-5-(((1S,2S)-2-(3-(pyridin-3-yloxy)azetidin-1-yl)cyclohexyl)oxy)isoindolin-2-yl)piperidine-2,6-dione] | –
5 | 58% | CCN(CC12CC(F)(C1)C2)[C@H]1CCC[C@@H]1Oc1ccc2c(c1)CN(C1CCC(=O)NC1=O)C2=O (stereo partly drawn) [I-136, 3-(5-(((1S,2S)-2-(ethyl((3-fluorobicyclo[1.1.1]pentan-1-yl)methyl)amino)cyclopentyl)oxy)-1-oxoisoindolin-2-yl)piperidine-2,6-dione] | –
6 | 80% | O=C1CCN([C@H]2CCC[C@@H]2Oc2ccc3c(c2)CN(C2CCC(=O)NC2=O)C3=O)CC1 (stereo partly drawn) [I-137, 3-(1-oxo-5-(((1S,2S)-2-(4-oxopiperidin-1-yl)cyclopentyl)oxy)isoindolin-2-yl)piperidine-2,6-dione] | –
7 | 83% | CC1(O)CCN([C@H]2CCC[C@@H]2Oc2ccc3c(c2)CN(C2CCC(=O)NC2=O)C3=O)CC1 (stereo partly drawn) [I-138, 3-(5-(((1S,2S)-2-(4-hydroxy-4-methylpiperidin-1-yl)cyclopentyl)oxy)-1-oxoisoindolin-2-yl)piperidine-2,6-dione] | –
8 | 83% | O=C1CCC(N2Cc3cc(O[C@H]4CCC[C@@H]4N4CCC(O)C4)ccc3C2=O)C(=O)N1 (stereo partly drawn) [I-139, 3-(5-(((1S,2S)-2-(3-hydroxypyrrolidin-1-yl)cyclopentyl)oxy)-1-oxoisoindolin-2-yl)piperidine-2,6-dione] | –
9 | 77% | CC1(O)CN([C@H]2CCC[C@@H]2Oc2ccc3c(c2)CN(C2CCC(=O)NC2=O)C3=O)C1 (stereo partly drawn) [I-141, 3-(5-(((1S,2S)-2-(3-hydroxy-3-methylazetidin-1-yl)cyclopentyl)oxy)-1-oxoisoindolin-2-yl)piperidine-2,6-dione] | –
10 | 83% | CC(C)CN[C@H]1CCC[C@@H]1Oc1ccc2c(c1)CN(C1CCC(=O)NC1=O)C2=O (stereo partly drawn) [I-142, 3-(5-(((1S,2S)-2-(isobutylamino)cyclopentyl)oxy)-1-oxoisoindolin-2-yl)piperidine-2,6-dione] | –
11 | 81% | CCN(C)[C@H]1CCC[C@@H]1Oc1ccc2c(c1)CN(C1CCC(=O)NC1=O)C2=O (stereo partly drawn) [I-143, 3-(5-(((1S,2S)-2-(ethyl(methyl)amino)cyclopentyl)oxy)-1-oxoisoindolin-2-yl)piperidine-2,6-dione] | –
12 | 88% | O=C1CCC(N2Cc3cc(O[C@H]4CCC[C@@H]4N4C[C@H]5COC[C@H]5C4)ccc3C2=O)C(=O)N1 (stereo partly drawn) [I-144, 3-(1-oxo-5-(((1S,2S)-2-((3aR,6aS)-tetrahydro-1H-furo[3,4-c]pyrrol-5(3H)-yl)cyclopentyl)oxy)isoindolin-2-yl)piperidine-2,6-dione] | –
13 | 52% | O=C1CCC(N2Cc3cc(O[C@H]4CCC[C@@H]4NCc4ccccn4)ccc3C2=O)C(=O)N1 (stereo partly drawn) [I-145, 3-(1-oxo-5-(((1S,2S)-2-((pyridin-2-ylmethyl)amino)cyclopentyl)oxy)isoindolin-2-yl)piperidine-2,6-dione] | –
14 | 83% | O=C1CCC(N2Cc3cc(O[C@H]4CCC[C@@H]4N4CCCC4)ccc3C2=O)C(=O)N1 (stereo partly drawn) [I-146, 3-(1-oxo-5-(((1S,2S)-2-(pyrrolidin-1-yl)cyclopentyl)oxy)isoindolin-2-yl)piperidine-2,6-dione] | –
15 | 44% | O=C1CCC(N2Cc3cc(O[C@H]4CCC[C@@H]4N4CC5(COC5)C4)ccc3C2=O)C(=O)N1 (stereo partly drawn) [I-147, 3-(5-(((1S,2S)-2-(2-oxa-6-azaspiro[3.3]heptan-6-yl)cyclopentyl)oxy)-1-oxoisoindolin-2-yl)piperidine-2,6-dione] | –
16 | 33% | CC1(CN(CC2(C)COC2)[C@H]2CCC[C@@H]2Oc2ccc3c(c2)CN(C2CCC(=O)NC2=O)C3=O)COC1 (stereo partly drawn) [I-148, 3-(5-(((1S,2S)-2-(bis((3-methyloxetan-3-yl)methyl)amino)cyclopentyl)oxy)-1-oxoisoindolin-2-yl)piperidine-2,6-dione] | –

Row | IKZF2 % protein reduction at 10 µM [1] | SMILES | IKZF2 % protein reduction at 10 µM
17 | 77% | CC1CCN([C@H]2CCC[C@@H]2Oc2ccc3c(c2)CN(C2CCC(=O)NC2=O)C3=O)CC1 (stereo partly drawn) [I-149, 3-(5-(((1S,2S)-2-(4-methylpiperidin-1-yl)cyclopentyl)oxy)-1-oxoisoindolin-2-yl)piperidine-2,6-dione] | –
18 | – | O=C1CCC(N2Cc3cc(O[C@H]4CCC[C@@H]4NCc4cccnc4)ccc3C2=O)C(=O)N1 (stereo partly drawn) [I-150, 3-(1-oxo-5-(((1S,2S)-2-((pyridin-3-ylmethyl)amino)cyclopentyl)oxy)isoindolin-2-yl)piperidine-2,6-dione] | 51%
19 | 53% | O=C1CCC(N2Cc3cc(O[C@H]4CCC[C@@H]4NCc4ccncc4)ccc3C2=O)C(=O)N1 (stereo partly drawn) [I-151, 3-(1-oxo-5-(((1S,2S)-2-((pyridin-4-ylmethyl)amino)cyclopentyl)oxy)isoindolin-2-yl)piperidine-2,6-dione] | –
20 | 82% | COC1(C)CCN([C@H]2CCC[C@@H]2Oc2ccc3c(c2)CN(C2CCC(=O)NC2=O)C3=O)CC1 (stereo partly drawn) [I-152, 3-(5-(((1S,2S)-2-(4-methoxy-4-methylpiperidin-1-yl)cyclopentyl)oxy)-1-oxoisoindolin-2-yl)piperidine-2,6-dione] | –
21 | – | CC1(C)CCN([C@H]2CCC[C@@H]2Oc2ccc3c(c2)CN(C2CCC(=O)NC2=O)C3=O)CC1 (stereo partly drawn) [I-153, 3-(5-(((1S,2S)-2-(4,4-dimethylpiperidin-1-yl)cyclopentyl)oxy)-1-oxoisoindolin-2-yl)piperidine-2,6-dione] | 85%
22 | 83% | COC1CCN([C@H]2CCC[C@@H]2Oc2ccc3c(c2)CN(C2CCC(=O)NC2=O)C3=O)CC1 (stereo partly drawn) [I-154, 3-(5-(((1S,2S)-2-(4-methoxypiperidin-1-yl)cyclopentyl)oxy)-1-oxoisoindolin-2-yl)piperidine-2,6-dione] | –
23 | 65% | CCN(CC1COC1)[C@H]1CCC[C@@H]1Oc1ccc2c(c1)CN(C1CCC(=O)NC1=O)C2=O (stereo partly drawn) [I-155, 3-(5-(((1S,2S)-2-(ethyl(oxetan-3-ylmethyl)amino)cyclopentyl)oxy)-1-oxoisoindolin-2-yl)piperidine-2,6-dione] | –
24 | 70% | O=C1CCC(N2Cc3cc(O[C@H]4CCC[C@@H]4N4Cc5ccccc5C4)ccc3C2=O)C(=O)N1 (stereo partly drawn) [I-156, 3-(5-(((1S,2S)-2-(isoindolin-2-yl)cyclopentyl)oxy)-1-oxoisoindolin-2-yl)piperidine-2,6-dione] | –
25 | 61% | COC1CN([C@H]2CCC[C@@H]2Oc2ccc3c(c2)CN(C2CCC(=O)NC2=O)C3=O)C1 (stereo partly drawn) [I-157, 3-(5-(((1S,2S)-2-(3-methoxyazetidin-1-yl)cyclopentyl)oxy)-1-oxoisoindolin-2-yl)piperidine-2,6-dione] | –
26 | 82% | CCOC1(C)CCN([C@H]2CCC[C@@H]2Oc2ccc3c(c2)CN(C2CCC(=O)NC2=O)C3=O)CC1 (stereo partly drawn) [I-158, 3-(5-(((1S,2S)-2-(4-ethoxy-4-methylpiperidin-1-yl)cyclopentyl)oxy)-1-oxoisoindolin-2-yl)piperidine-2,6-dione] | –
27 | 75% | CO[C@H]1CC[C@H](CN[C@H]2CCC[C@@H]2Oc2ccc3c(c2)CN(C2CCC(=O)NC2=O)C3=O)CC1 (stereo partly drawn) [I-159, 3-(5-(((1S,2S)-2-((((1r,4S)-4-methoxycyclohexyl)methyl)amino)cyclopentyl)oxy)-1-oxoisoindolin-2-yl)piperidine-2,6-dione] | –
28 | – | N#C[C@H]1CC[C@H](CN[C@H]2CCC[C@@H]2Oc2ccc3c(c2)CN(C2CCC(=O)NC2=O)C3=O)CC1 (stereo partly drawn) [I-160, (1S,4r)-4-((((1S,2S)-2-((2-(2,6-dioxopiperidin-3-yl)-1-oxoisoindolin-5-yl)oxy)cyclopentyl)amino)methyl)cyclohexane-1-carbonitrile] | 75%
29 | 80% | COC1CCC(CN[C@H]2CCC[C@@H]2Oc2ccc3c(c2)CN(C2CCC(=O)NC2=O)C3=O)CC1 (stereo partly drawn) [I-161, 3-(5-(((1S,2S)-2-(((4-methoxycyclohexyl)methyl)amino)cyclopentyl)oxy)-1-oxoisoindolin-2-yl)piperidine-2,6-dione] | –
30 | 78% | CCN(CC1CC(C)(C#N)C1)[C@H]1CCC[C@@H]1Oc1ccc2c(c1)CN(C1CCC(=O)NC1=O)C2=O (stereo partly drawn) [I-163, 3-((((1S,2S)-2-((2-(2,6-dioxopiperidin-3-yl)-1-oxoisoindolin-5-yl)oxy)cyclopentyl)(ethyl)amino)methyl)-1-methylcyclobutane-1-carbonitrile] | –
31 | – | O=C1CCC(N2Cc3cc(O[C@H]4CCC[C@@H]4N4CCC(F)CC4)ccc3C2=O)C(=O)N1 (stereo partly drawn) [I-166, 3-(5-(((1S,2S)-2-(4-fluoropiperidin-1-yl)cyclopentyl)oxy)-1-oxoisoindolin-2-yl)piperidine-2,6-dione] | 81%
32 | 75% | O=C1CCC(N2Cc3cc(O[C@H]4CCC[C@@H]4N4CCCOCCC4)ccc3C2=O)C(=O)N1 (stereo partly drawn) [I-167, 3-(5-(((1S,2S)-2-(1,5-oxazocan-5-yl)cyclopentyl)oxy)-1-oxoisoindolin-2-yl)piperidine-2,6-dione] | –
